Measured values reported in US8617534B2, “Compositions and method for manipulating PIM-1 activity in circulatory system cells” (San Diego State University (SDSU) Foundation, priority 2007, dated 2013).
Entries after “also recorded” stand apart in the source; their conditions may differ.

Tests used:
[1] = system: PIM-1; assay: PIM-1 expression in cultured cardiomyocytes (immunoblot, confocal microscopy); format: cell-based, rat; conditions: for induction of PIM-1 expression / PIM-1 immunoreactivity by confocal microscopy: treatment for 2 hours; for PIM-1 protein level (immunoblot): 2 hour exposure; for PIM-1 immunoreactivity by confocal microscopy: compared to control cells
Method: Neonatal Rat Cardiomyocyte Cultures infections and treatments. Neonatal rat cardiomyocyte cultures were prepared as described previously^12. Cells to be subjected to treatments were placed in media with 2% serum overnight and then treated with the appropriate agent and harvested or fixed after the pre-described timepoint. Cardiomyocytes were infected with adenovirus for two hours, washed in PBS and then re-fed M199 with 2% FBS and 50 μg/ml pen/strep, and 100 μM glutamine.
Immunoblotting. Infected cardiomyocytes were harvested 24 hours after infection in SDS denaturing sample buffer, sonicated and boiled for 10 minutes, and quantitated using the Bradford assay. Mouse whole heart lysates were generated from flash frozen hearts pulverized in a mortar and pestle then resuspended in SDS denaturing sample buffer, sonicated, boiled for 10 minutes and quantitated using Bradford assay. […] Blots were blocked in 3% BSA for 1 hour, and probed with primary antibodies (PIM-1 (Cell Signaling Technology), c-jun (Cell Signaling Technology), HISTONE3™ (Cell Signaling Technology), GFP (Molecular Probes), bcl-2 (Santa Cruz), bcl-XL (Cell Signaling Technology), PHOSPHO-BADS112™ (Biosource) AKT (Cell Signaling Technology), GAPDH (Research Diagnostics Inc.), PHOSPHO-AKTS473™ (Cell Signaling Technology), total PARP (Biosource), cleaved PARP (Biosource), and cleaved caspase3 (Cell Signaling Technologies)) diluted in blocking solution overnight at 4° C. Blots were washed in TBS-0.5% Tween three times and probed with fluorescent or alkaline phosphatase conjugated secondary antibodies diluted 1:5000 in blocking solution for 1 hour at room temperature followed by three washes in TBS-0.5% Tween. […] All quantitation is based on standardization to loading controls.
Immunohistochemistry. Hearts were fixed and embedded and cardiomyocytes fixed and permeabilized as described previously^12. Staining of cultured neonatal rat cardiomyocytes was performed with antibodies described above diluted 1:25 in PBS containing 10% horse serum overnight at 4° C. Slides were washed in PBS and probed with fluorescent conjugated secondary antibodies (1:100) for one hour at room temperature, and Texas Red phalloidin (1:50 Molecular Probes) to identify actin filaments. Slides were washed three times in PBS, and stained for 30 minutes with TOPRO-3™ (1:5000 Molecular Probes) to identify nuclei, washed once and cover-slipped using […]™ (Vectra Labs). Paraffin embedded samples were cut at 4 μm and deparaffinized through a standard series of Xylene and graded Ethanol steps to water. Antigen retrieval was performed in 10 mM Citrate pH6.0. PIM-1 and phospho-AKT signals were amplified using the TYRAMIDE AMPLIFICATION KIT™ (Perkin Elmer) with primary concentrations of 1:500 for both antibodies, and secondaries 1:3000. Slides were washed following the amplification process, and stained with TOPRO-3 (Molecular Probes) to identify nuclei, washed and cover-slipped with […]™ (Vectra Labs). Confocal imaging of stained slides was performed on a Leica LCS confocal microscope. For comparison purposes, all slides were treated identically and scanned using the same settings in each experiment.

[2] = system: protein phosphatase 2A; conditions: cited from earlier work
[3] = system: neonatal rat cardiomyocytes (NRCMs); assay: Endothelin-1 induced hypertrophy, cell surface area of neonatal rat cardiomyocytes; format: cell-based; conditions: 10 nM for 1 hour prior to 48 hour incubation with ET-1; compared to ET-1 stimulated cells without inhibitor
Method: The impact of Pim-wt overexpression upon cardiomyocyte hypertrophy was initially examined using neonatal rat cardiomyocytes (NRCMs) infected with adenoviruses encoding EGFP-Pim-wt or EGFP protein followed by stimulation with endothelin-1 (ET-1) for 24 hours.
Neonatal rat cardiomyocyte cultures were prepared as described previously (10).

Molecule | induction of PIM-1 expression [1] | PIM-1 protein level (immunoblot) [1] | PIM-1 immunoreactivity by confocal microscopy [1] | other results
C[C@@H]1C[C@H]2[C@@H]3CCC4=CC(=O)C=C[C@]4(C)[C@@]3(F)[C@@H](O)C[C@]2(C)[C@@]1(O)C(=O)CO [dexamethasone] | 2.0 fold |  |  | 
Insulin-like Growth Factor [IGF-1] | 2.7 fold | significantly increased PIM-1 expression; also recorded: Induction is evident | induced PIM-1 immunoreactivity | 
Leukemia Inhibitory Factor [LIF] | 2.8 fold | significantly increased PIM-1 expression | induced PIM-1 immunoreactivity | 
C=C[C@@]1(C)CC(=O)[C@]2(O)[C@@]3(C)[C@@H](O)CCC(C)(C)[C@@H]3[C@H](O)[C@H](OC(C)=O)[C@@]2(C)O1 [forskolin] |  |  |  | reduction of PIM-1 expression ([1]; versus control cultures): 45%
C=C1[C@@H](O)[C@@H]2O[C@]3(CC[C@H](/C=C/[C@@H](C)[C@@H]4CC(C)=C[C@@]5(O[C@H](C[C@@](C)(O)C(=O)O)CC[C@H]5O)O4)O3)CC[C@H]2O[C@@H]1[C@@H](O)C[C@H](C)[C@H]1O[C@@]2(CCCCO2)CC[C@H]1C [Okadaic acid] |  |  |  | effect on negative regulation of PIM-1 by protein phosphatase 2A [2]: inhibit or block negative regulation of PIM-1 by protein phosphatase 2A
O=c1c(O)c(-c2ccc(O)c(O)c2)oc2cc(O)c(O)c(O)c12 [quercetagetin] |  |  |  | cell surface of Pim-1 expressing NRCM cultures [3]: significantly larger surface
COC[C@H]1OC(=O)c2coc3c2[C@@]1(C)C1=C(C3=O)[C@@H]2CCC(=O)[C@@]2(C)C[C@H]1OC(C)=O [wortmannin] |  |  |  | reduction of PIM-1 expression in response to IGF-1 treatment ([1]; in the presence of the inhibitor or inactivated AKT): 4.0 fold
CNC[C@H](O)c1cccc(O)c1 [phenylephrine] |  | did not markedly increase Pim-1 protein expression | not induced | PIM-1 protein level (immunoblot) ([1]; listed as phenyl-ephedrine): little or no increase
endothelin-1 |  | little or no increase; also recorded: did not markedly increase Pim-1 protein expression | not induced | 
CCCCCCCCCCCCCC(=O)O[C@@H]1[C@@H](C)[C@@]2(O)[C@@H](C=C(CO)C[C@]3(O)C(=O)C(C)=C[C@@H]23)[C@@H]2C(C)(C)[C@]12OC(C)=O [PMA] | 2.3 fold | significantly increased PIM-1 expression; also recorded: Induction is evident | induced PIM-1 immunoreactivity | 
SV40 small T antigen: viral protein said to block negative regulation of PIM-1 by protein phosphatase 2A (protein, UniProt P03081 1-174, looked up) Small t antigen: MDKVLNREESLQLMDLLGLERSAWGNIPLMRKAYLKKCKEFHPDKGGDEEKMKKMNTLYKKMEDGVKYAHQPDFGGFWDATEVFASSLNPGVDAMYCKQWPECAKKMSANCICLLCLLRMKHENRKLYRKDPLVWVDCYCFDCFRMWFGLDLCEGTLLLWCDIIGQTTYRDLKL |  |  |  | effect on negative regulation of PIM-1 by protein phosphatase 2A [2]: inhibit or block negative regulation of PIM-1 by protein phosphatase 2A
